Results as given in the supplement of paper PMC4862054.

Experiments:
Assay in all cases: normalised response (% of control), CellTiter-Glo; higher = more viable cells (100 = DMSO, 0 = benzethonium chloride kill control)
Settings in all cases: incubation time: 72 h
HCC1143 = tested on: HCC1143
How it was run: (§1)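 Values are normalised signals, each belonging to one concentration of the series. Breast cancer cells (20 µl suspension) were seeded into 384-well plates with compound at 5 concentrations in 10-fold steps over a compound-specific 10,000-fold range and incubated 72 h. Readouts were CellTox Green fluorescence (485/520 nm), then CellTiter-Glo luminescence after 10 min at room temperature, with each plate set to 0.1 % DMSO as 100 and a positive kill control as 0.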

MDA-MB-468 = tested on: MDA-MB-468
How it was run: as §1

HCC1937 = tested on: HCC1937
How it was run: as §1

Hs578T = tested on: Hs578T
How it was run: as §1

SK-BR-3 = tested on: SK-BR-3
How it was run: as §1

CAL-51 = tested on: CAL-51
How it was run: as §1

MCF-10A = tested on: MCF-10A
How it was run: as §1

HDQ-P1 = tested on: HDQ-P1
How it was run: as §1

HCC1599 = tested on: HCC1599
How it was run: as §1

DU-4475 = tested on: DU-4475
How it was run: as §1

CAL-85-1 = tested on: CAL-85-1
How it was run: as §1

BT-474 = tested on: BT-474
How it was run: as §1

MDA-MB-453 = tested on: MDA-MB-453
How it was run: as §1

CAL-148 = tested on: CAL-148
How it was run: as §1

MFM-223 = tested on: MFM-223
How it was run: as §1

MDA-MB-436 = tested on: MDA-MB-436
How it was run: as §1

BT-549 = tested on: BT-549
How it was run: as §1

MDA-MB-231 = tested on: MDA-MB-231
How it was run: as §1

CAL-120 = tested on: CAL-120
How it was run: as §1

SMILES	normalised response (HCC1143) [%]	normalised response (MDA-MB-468) [%]	normalised response (HCC1937) [%]	normalised response (Hs578T) [%]	normalised response (SK-BR-3) [%]	normalised response (CAL-51) [%]	normalised response (MCF-10A) [%]	normalised response (HDQ-P1) [%]	normalised response (HCC1599) [%]	normalised response (DU-4475) [%]	normalised response (CAL-85-1) [%]	normalised response (BT-474) [%]	normalised response (MDA-MB-453) [%]	normalised response (CAL-148) [%]	normalised response (MFM-223) [%]	normalised response (MDA-MB-436) [%]	normalised response (BT-549) [%]	normalised response (MDA-MB-231) [%]	normalised response (CAL-120) [%]
CC(=O)O[C@]1(C(C)=O)CC[C@H]2[C@@H]3C=C(C)C4=CC(=O)CC[C@]4(C)[C@H]3CC[C@@]21C [Megestrol acetate] (1 nM)	95.2	88.8	95.4	96.8	99.2	120	101	99.8	96.5	97.5	98.9	95.9	131	99.9	98	101	97.7	98.5	94.9
CC(=O)O[C@]1(C(C)=O)CC[C@H]2[C@@H]3C=C(C)C4=CC(=O)CC[C@]4(C)[C@H]3CC[C@@]21C [Megestrol acetate] (10 nM)	104	107	95	96.9	102	83.4	107	104	105	96.6	98	102	103	86.9	97.1	96.3	100	101	98.1
S=c1[nH]cnc2nc[nH]c12 [Mercaptopurine] (10 nM)	106	94.3	93.1	100	109	119	103	97.1	89.8	98.5	94.5	98.6	93	83.4	97.2	98	97.7	96	98.5
Clc1ccc(C(c2ccccc2Cl)C(Cl)Cl)cc1 (stereo not given) [Mitotane] (10 nM)	101	94	99	103	98.1	104	96.4	97	132	103	106	93.1	109	91.2	99	89.8	104	99.8	101
CCN1CCN(c2ccc(Nc3cc(N(C)C(=O)Nc4c(Cl)c(OC)cc(OC)c4Cl)ncn3)cc2)CC1 [NVP-BGJ398] (0.1 nM)	98.2	88.2	95.6	97.3	99	74.7	101	101	98.7	101	93.4	96.7	84.1	97.7	96.6	97.6	99.8	95.4	92
